Measurements from publication PMC12069643, “Structural insights into the selective recognition of RF-amide peptides by neuropeptide FF receptor 2” (EMBO Reports, 2025).
Where two headings read alike, the source gives them in different places. Ends that are not written are not given here.

Columns and labels:
human NPFFR2 = biological target: T1, human NPFFR2 (Homo sapiens, UniProt Q9Y5X5); experiment: GloSensor forskolin-stimulated cAMP assay, NPFFR2 wild-type; type: cell-based; conditions: NPFFR2 wild-type (100% DNA treated for hNPSF), HEK293T, 0.5 μM forskolin; for Emax: HEK-293T, mean of three independent experiments ± SEM; for EC50: three independent experiments
T1 construct: expressed in transfected cells; host or cells: HEK293T (pcDNA3.1 NPFFR2)
Description: Figure 1 Structural analysis and downstream signaling of NPFFR2. (A) The concentration-dependent response of various agonists on NPFFR2 is measured using a forskolin-stimulated cAMP assay. Data points represent mean values from three independent experiments (each with technical triplicate), with error bars indicating SEM (standard error of the mean). Raw data were normalized to the vehicle-treated (0%) and 0.5 μM forskolin-treated (100%) responses. […] (C) The extracellular loop 2 (ECL2, pink) and N-terminus (Nt, blue) of NPFFR2 are depicted using a cartoon model. […] Source data are available online for this figure.
(§1) HEK293T cells were seeded at a density of 6 × 10^5 cells per well in a six-well cell culture plate (SPL) and co-transfected with expression plasmids encoding GloSensor™ and each NPFFR construct, using 1 µg to 4 µg of DNA per well according to the Lipofectamine™ 2000 Transfection Reagent (Invitrogen) protocol. After 48 h of incubation under standard conditions (37 °C, 5% CO2), the cells were detached using Accutase solution (Sigma-Aldrich) and washed with PBS. The cells were then pelleted by centrifugation, resuspended in CO2-independent medium (Gibco) supplemented with Firefly D-Luciferin (0.5 mg/ml, NanoLight), and distributed into a 96-well white plate (SPL). After a 2-hour incubation, serially diluted ligands and 0.5 μM forskolin were added to each well to detect ligand-induced signaling. Luminescence signals were measured using a Mithras LB940 instrument (Berthold) with a measurement time of 1 s per well.
(§2) Data from the GloSensor^TM cAMP signaling assays were analyzed using GraphPad Prism with a three-parameter logistic model to fit concentration-response curves for both wild-type (WT) and mutant receptors. Mutant expression levels and DNA amounts were adjusted to match WT conditions. ΔpEC50 values were calculated by subtracting the log EC50 of the WT receptor from that of each mutant. Results are presented as mean ± SEM from three independent biological replicates, each performed in duplicate or more. Error bars represent the SEM. Statistical significance was assessed using one-way ANOVA, followed by Dunnett’s tests comparisons to the WT receptor. Significance levels were reported as follows: ns (not significant, P > 0.05); *P < 0.05; **P < 0.01; ***P < 0.001.

human NPFFR1 = biological target: T2, human NPFFR1 (Homo sapiens, UniProt Q9GZQ6); experiment: GloSensor forskolin-stimulated cAMP assay, NPFFR1 wild-type; type: cell-based; conditions: for Emax: HEK-293T, read-out: Emax ± SEM
T2 construct: expressed in transfected cells; host or cells: HEK293T (pcDNA3.1 NPFFR1)
Description: Figure 4 RF-amide ligand selectivity of NPFFR2 and NPFFR1. […] Key residues at the fifth and sixth positions from the C-terminus, are highlighted in bold. […] (B) The concentration-dependent response of various agonists on NPFFR1 was measured using a forskolin-stimulated cAMP assay. Data points represent the mean values from three independent experiments (each with technical triplicate), with error bars indicating SEM. Raw data were normalized to the vehicle-treated (0%) and 0.5 μM forskolin-treated (100%) responses. (C) Structural comparison between the binding modes of hNPSF to NPFFR2 and GnIH to NPFFR1. An AlphaFold2 prediction model of the GnIH–NPFFR1 complex was generated using the hNPSF–NPFFR2 complex structure as a template. The hydrophobicity of NPFFRs is shown with surface representation, where purple indicates hydrophilic regions and bronze indicates hydrophobic regions. […] (D) The cAMP response to the ligands hNPSF and GnIH was measured for both wild-type NPFFR1 and a mutant form of NPFFR1 using a forskolin-stimulated cAMP assay. […] Symbols represent mean values from three independent experiments, each conducted in technical triplicates, with error bars indicating SEM. Responses were normalized to vehicle-treated controls (0%) and 0.5 μM forskolin-treated controls (100%). Source data are available online for this figure.
as §1, §2

[1] = biological target: NPFFR1 mutant (Q37^NtL, I293^6.58S, and T307^7.31N) (UniProt Q9GZQ6)
[2] = biological target: T3, NPFFR1-chimera (Q37^NtL/I293^6.58S/T307^7.31N) (Homo sapiens, UniProt Q9GZQ6, I293S/Q37L/T307N); experiment: GloSensor forskolin-stimulated cAMP assay, NPFFR1 triple mutant (chimera Q37NtL/I2936.58S/T3077.31N); type: cell-based; conditions: HEK293T, 0.5 μM forskolin, three independent experiments
T3 construct: expressed in transfected cells; host or cells: HEK293T
Description: Figure 4 RF-amide ligand selectivity of NPFFR2 and NPFFR1. (A) Sequence alignment between human NPFFs and RFRPs, the endogenous ligands of NPFFRs, which share PXRF-NH2 motif at their C-terminus (shown in green letters). Key residues at the fifth and sixth positions from the C-terminus, are highlighted in bold. […] (B) The concentration-dependent response of various agonists on NPFFR1 was measured using a forskolin-stimulated cAMP assay. Data points represent the mean values from three independent experiments (each with technical triplicate), with error bars indicating SEM. Raw data were normalized to the vehicle-treated (0%) and 0.5 μM forskolin-treated (100%) responses. (C) Structural comparison between the binding modes of hNPSF to NPFFR2 and GnIH to NPFFR1. An AlphaFold2 prediction model of the GnIH–NPFFR1 complex was generated using the hNPSF–NPFFR2 complex structure as a template. The hydrophobicity of NPFFRs is shown with surface representation, where purple indicates hydrophilic regions and bronze indicates hydrophobic regions. […] (D) The cAMP response to the ligands hNPSF and GnIH was measured for both wild-type NPFFR1 and a mutant form of NPFFR1 using a forskolin-stimulated cAMP assay. […] Symbols represent mean values from three independent experiments, each conducted in technical triplicates, with error bars indicating SEM. Responses were normalized to vehicle-treated controls (0%) and 0.5 μM forskolin-treated controls (100%). Source data are available online for this figure.
To further validate whether these specific residues in NPFFR1 affect ligand selectivity, we generated a triple mutant of NPFFR1, in which residues Q37^Nt, I293^6.58, and T307^7.31 of NPFFR1 were replaced by the corresponding NPFFR2 residues, Leu, Ser, and Asn, respectively (Appendix Fig. S10). […]
HEK293T cells were seeded at a density of 6 × 10^5 cells per well in a six-well cell culture plate (SPL) and co-transfected with expression plasmids encoding GloSensor™ and each NPFFR construct, using 1 µg to 4 µg of DNA per well according to the Lipofectamine™ 2000 Transfection Reagent (Invitrogen) protocol. […] Luminescence signals were measured using a Mithras LB940 instrument (Berthold) with a measurement time of 1 s per well.
as §2, with “Results are presented as mean ± SEM from three independent biological replicates, each performed in duplicate or more. Error bars represent the SEM.” left out, “Significance levels were reported as follows: ns (not significant, P > 0.05); *P < 0.05; **P < 0.01; ***P < 0.001.” left out

[3] = biological target: NPFFR1 mutant (Q37^NtL, I293^6.58S, and T307^7.31N) (UniProt Q9GZQ6 1-430, Q37^NtL | I293^6.58S | T307^7.31N); experiment: cell-based or functional assay
[4] = biological target: T4, human Neuropeptide FF Receptor 2 (8-420) (human, UniProt Q9Y5X5-2 8-420); experiment: cryo-EM structure; purified NPFFR2, Gi heterotrimer and scFv16 mixed 1:1.5:2 with 0.01 mM hNPSF, HRV3C protease and apyrase, overnight at 4 °C; M1 anti-FLAG column and SEC in 20 mM Tris-Cl pH 8.0, 150 mM NaCl, LMNG/CHS, 100 nM hNPSF; global resolution 3.2 Å; conditions: both partners purified
T4 construct: human NPFFR2, residues 8-420; GFP tag cut off with HRV3C protease while the complex was assembled; the 8xHis tag follows GFP; In the final model the N-terminal 24 residues and the residues beyond 348 are missing; also called NPFFR2; NPFF receptor 2; source: Sf9, purified (Ni-NTA; in LMNG/CHS); not shown: FLAG, N-terminal, kept; GFP, C-terminal, cleaved; His8, C-terminal, cleaved
T4 sequence (Q9Y5X5 110-522): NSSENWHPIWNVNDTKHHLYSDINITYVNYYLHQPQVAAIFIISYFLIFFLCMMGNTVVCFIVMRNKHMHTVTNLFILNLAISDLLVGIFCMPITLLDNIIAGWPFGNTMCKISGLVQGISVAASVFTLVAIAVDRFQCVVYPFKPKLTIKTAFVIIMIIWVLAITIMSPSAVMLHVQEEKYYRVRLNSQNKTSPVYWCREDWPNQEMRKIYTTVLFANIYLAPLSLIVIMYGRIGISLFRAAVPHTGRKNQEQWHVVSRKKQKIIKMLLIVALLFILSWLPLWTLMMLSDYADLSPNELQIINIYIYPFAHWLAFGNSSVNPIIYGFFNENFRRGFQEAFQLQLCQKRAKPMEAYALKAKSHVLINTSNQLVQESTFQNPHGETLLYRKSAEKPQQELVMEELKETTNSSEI

T2 sequence (Q9GZQ6 whole entry): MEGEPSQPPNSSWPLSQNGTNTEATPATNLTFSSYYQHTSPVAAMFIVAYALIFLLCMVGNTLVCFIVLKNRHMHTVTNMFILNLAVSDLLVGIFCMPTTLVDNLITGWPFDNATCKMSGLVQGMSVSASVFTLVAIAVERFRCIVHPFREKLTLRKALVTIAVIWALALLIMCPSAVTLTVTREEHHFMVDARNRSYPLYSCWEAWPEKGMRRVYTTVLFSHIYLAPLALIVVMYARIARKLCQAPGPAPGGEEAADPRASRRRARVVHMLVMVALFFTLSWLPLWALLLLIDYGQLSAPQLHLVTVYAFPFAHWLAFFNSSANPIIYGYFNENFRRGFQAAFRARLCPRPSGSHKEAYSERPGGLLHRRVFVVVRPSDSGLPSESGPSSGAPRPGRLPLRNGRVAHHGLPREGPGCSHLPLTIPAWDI
T1 sequence (Q9Y5X5 103-522): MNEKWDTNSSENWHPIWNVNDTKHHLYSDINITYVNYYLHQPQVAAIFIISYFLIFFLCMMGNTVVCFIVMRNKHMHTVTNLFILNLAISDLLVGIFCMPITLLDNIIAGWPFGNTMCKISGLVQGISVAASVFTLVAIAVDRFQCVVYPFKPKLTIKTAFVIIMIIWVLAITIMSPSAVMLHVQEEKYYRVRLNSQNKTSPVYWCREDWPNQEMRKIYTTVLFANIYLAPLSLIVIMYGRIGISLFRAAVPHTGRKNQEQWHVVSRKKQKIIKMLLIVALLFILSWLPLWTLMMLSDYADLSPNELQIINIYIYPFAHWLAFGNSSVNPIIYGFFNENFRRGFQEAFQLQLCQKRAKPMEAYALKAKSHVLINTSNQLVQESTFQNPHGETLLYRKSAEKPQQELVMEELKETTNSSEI
T3 sequence (Q9GZQ6 whole entry Q37L/I293S/T307N): as the sequence (Q9GZQ6 whole entry) above, with Q37L, I293S, T307N counted along it
Chain of NPFFR1 mutant (Q37^NtL, I293^6.58S, and T307^7.31N) (UniProt Q9GZQ6 1-430, Q37^NtL | I293^6.58S | T307^7.31N) (Q9GZQ6 other isoform, or with tags, fused parts or gaps with the stated changes): as the sequence (Q9GZQ6 whole entry) above, with Q37L, I293S, T307N counted along it
Chain of NPFFR1 mutant (Q37^NtL, I293^6.58S, and T307^7.31N) (UniProt Q9GZQ6) (Q9GZQ6 other isoform, or with tags, fused parts or gaps mutant): as the sequence (Q9GZQ6 whole entry) above, with Q37L, I293S, T307N counted along it

For `CC(C)C[C@H](NC(=O)[C@H](CC(N)=O)NC(=O)[C@@H]1CCCN1C(=O)[C@@H](N)C(C)C)C(=O)N1CCC[C@H]1C(=O)N[C@@H](CCC(N)=O)C(=O)N[C@@H](CCCNC(=N)N)C(=O)N[C@@H](Cc1ccccc1)C(N)=O` [NPVF], the Emax (human NPFFR2) was 78 ± 3% and the EC50 (human NPFFR2) was 631 nM.

Molecule AGEGLNSQFWSLAAPQRF-NH2 [NPAF] has an Emax (human NPFFR2) of 80 ± 2%, an EC50 (human NPFFR2) of 6.31 nM and an EC50 (human NPFFR1) of 200 nM. For the same molecule, the Emax (human NPFFR1) was 83 ± 3%.

GnIH/RFRP-3 (peptide) showed a fold decrease in forskolin-stimulated cAMP assay (GloSensor, HEK293T): response to GnIH, against wild-type NPFFR1 [1] of 30 fold.

“MPHSFANLPLRF-NH2 [GnIH] [listing 1 of 2 here]” gave an Emax (human NPFFR2) of 81 ± 2%, an Emax (human NPFFR1; NPFFR1 wild-type, HEK293T, 0.5 μM forskolin, three independent experiments) of 80 ± 3% and an Emax ([2]; HEK-293T) of 80 ± 2%.

In the case of “MPHSFANLPLRF-NH2 [GnIH] [listing 2 of 2 here]”, the EC50 (human NPFFR2) is reported as 158 nM, the EC50 (human NPFFR1; NPFFR1 wild-type, HEK293T, 0.5 μM forskolin, three independent experiments, read-out: pEC50 ± SEM (converted)) is reported as 3.16 nM and the EC50 [2] is reported as 100 nM.

B1: human NPSF (SQAFLFQPQRF-NH2) (peptide)
peptide: SQAFLFQPQRF-NH2
notes: human form of NPSF (SQA-NPFF), an RF-amide peptide of the NPFF series; also called hNPSF; SQA-NPFF; source: synthetic peptide; bought: Cusabio (custom order)
With B1 the “forskolin-stimulated cAMP assay (GloSensor, HEK293T): response to hNPSF, against wild-type NPFFR1” value [3] was roughly 2 fold and the binding result [4] was “binds”.
